In patent publication US8143403B2 (Bristol-Myers Squibb Company, priority 2008, dated 2012):
Several values for one entry are separate records, joined by “and”; a condition that tells them apart may be missing. Equal entries are not always repeated.

Target: CGRP receptor complex (Homo sapiens, UniProt O60894+Q16602)
Test: Functional antagonism/Schild analysis, CGRP-stimulated cAMP production (HTRF) in SK-N-MC cells
Format: cell-based
Procedure: Saturation/Scatchard Analysis. […] Saturation data were analyzed using a one site binding equation to estimate apparent equilibrium dissociation constant (Kd) and the maximum number of binding sites (Bmax) (Prizm v4.0, Graphpad). […] Functional Antagonism/Schild analysis. Agonist stimulation of CGRP receptor complex leads to cyclic AMP (adenosine 3′5′-cyclic monophosphate) production via Gs-dependent activation of an adenylate cyclase (Juaneda C et al., TiPS, 2000; 21:432-438). Consequently, CGRP receptor antagonists inhibit CGRP-induced cyclic AMP formation in SK-N-MC cells which natively express the CGRP receptor complex (Doods H et al., Br J Pharmacol, 2000; 129(3):420-423). […] A Schild analysis format was used, which allowed investigation of the mechanism of antagonism. […] Various concentrations of CGRP were added and the cells were allowed to incubate 30 min at room temperature. The cells were lysed with lysis reagent and cAMP concentrations were determined by HTRF according to the manufacturer's instructions. A standard curve using known quantities of cAMP was evaluated in parallel to allow conversion of HTRF ratio to nM cAMP. The resulting curves were then evaluated using a Gaddum/Schild equation individually and with global fitting (Prizm v4.0, Graphpad). […] To obtain a global fit the following parameters were shared (top, bottom, logEC50, Hill slope and pA2) and all curves were fit simultaneously. […] Non-Terminal Method for Assessing In Vivo Efficacy of Small Molecule CGRP-Receptor Antagonists in Mammals Overview. […] Non-human primates (e.g., marmosets) are the only animals known to have human-like CGRP receptor pharmacology conferred by the presence of the specific amino acid residue (Trp74) in their RAMP1 sequence which is responsible for the phenotype of the human receptor (Mallee et al. J Biol Chem 2002 277:14294). […]

Sequence of CGRP receptor complex (Q16602 23-461): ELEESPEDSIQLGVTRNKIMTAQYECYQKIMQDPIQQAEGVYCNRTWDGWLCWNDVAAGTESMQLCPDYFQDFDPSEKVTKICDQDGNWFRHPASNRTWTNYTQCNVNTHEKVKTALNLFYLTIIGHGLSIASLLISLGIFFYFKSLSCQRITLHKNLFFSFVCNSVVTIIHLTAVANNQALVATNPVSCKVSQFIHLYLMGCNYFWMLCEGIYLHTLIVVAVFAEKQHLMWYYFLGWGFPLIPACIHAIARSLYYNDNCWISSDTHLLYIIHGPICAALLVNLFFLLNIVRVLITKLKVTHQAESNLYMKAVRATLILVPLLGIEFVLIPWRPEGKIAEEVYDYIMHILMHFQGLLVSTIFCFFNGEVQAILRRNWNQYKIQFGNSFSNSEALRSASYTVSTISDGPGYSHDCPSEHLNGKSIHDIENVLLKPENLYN
Sequence of CGRP receptor complex (O60894 27-148): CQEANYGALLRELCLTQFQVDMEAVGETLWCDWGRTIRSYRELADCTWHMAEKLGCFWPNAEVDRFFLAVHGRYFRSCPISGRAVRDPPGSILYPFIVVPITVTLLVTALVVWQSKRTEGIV

O=C(O[C@@H]1CC[C@@H](c2cccc(F)c2F)Cc2cccnc21)N1CCC(n2c(=O)[nH]c3ncccc32)CC1 [Example 20]
effect on maximal CGRP response (cAMP production) (15 min pre-incubation, 0.3 to 24 nM antagonist): without altering the maximal response | Kb (global Gaddum/Schild fit, Schild slope of 1, two datasets): 0.247 ± 0.04 nM | Schild slope (global fits with unconstrained Schild slope, two separate experiments): 1.17 and 0.8
